Experimental data: PubChem BioAssay AID1963422 (Molecular Pharmacology Branch, DTP, NCI, 2024)

Test system: 463943-066-T-J2-PDC complex spheroid growth
Assay: Anticancer human tumor 463943-066-T-J2-PDC patient-derived colon adenocarcinoma cell line growth inhibition [Asc]
Conditions: for viability, T/C: stronger effect = lower value
Procedure, shortened: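 Stromal components (HUVEC and hMSC) are co-assembled with the cancer cells into multicellular spheroids. Drugs are then added singly or paired, at concentrations falling by half-log increments from a clinically achievable maximum, capped at 10 microM without known Cmax.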
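Further: compound exposure lasted 7 days.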
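Wherever viability, T/C is given: 100% = DMSO vehicle control wells.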

Cc1nc(N2CCC3(CC2)COC(C)C3N)c(CO)nc1Sc1ccnc(N)c1Cl (configuration not stated) + CCN1C(C(=O)NC23CCC(C(=O)O)(CC2)CC3)C(c2cccc(Cl)c2F)C2(C(=O)Nc3cc(Cl)ccc32)C12CCCCC2
IC50 (curve of first compound, second compound 0.00949 µM): > 3000 nM | IC50 (curve of first compound, second compound 0.03 µM): > 3000 nM | IC50 (curve of first compound, second compound 0.0949 µM): > 3000 nM | IC50 (curve of first compound, second compound 0.3 µM): > 3000 nM | IC50 (curve of first compound, second compound 0.949 µM): > 3000 nM | IC50 (curve of first compound, second compound 3 µM): > 3000 nM | viability, T/C (second compound 0.00949 µM, first compound 0.00949 µM): 96.7% | viability, T/C (second compound 0.00949 µM, first compound 0.03 µM): 88% | viability, T/C (second compound 0.00949 µM, first compound 0.0949 µM): 87% | viability, T/C (second compound 0.00949 µM, first compound 0.3 µM): 81.5% | viability, T/C (second compound 0.00949 µM, first compound 0.949 µM): 82.3% | viability, T/C (second compound 0.00949 µM, first compound 3 µM): 63.6% | viability, T/C (second compound 0.03 µM, first compound 0.00949 µM): 91% | viability, T/C (second compound 0.03 µM, first compound 0.03 µM): 91.3% | viability, T/C (second compound 0.03 µM, first compound 0.0949 µM): 81.2% | viability, T/C (second compound 0.03 µM, first compound 0.3 µM): 82.2% | viability, T/C (second compound 0.03 µM, first compound 0.949 µM): 74% | viability, T/C (second compound 0.03 µM, first compound 3 µM): 60% | viability, T/C (second compound 0.0949 µM, first compound 0.00949 µM): 90.1% | viability, T/C (second compound 0.0949 µM, first compound 0.03 µM): 86.8% | viability, T/C (second compound 0.0949 µM, first compound 0.0949 µM): 76.2% | viability, T/C (second compound 0.0949 µM, first compound 0.3 µM): 75.7% | viability, T/C (second compound 0.0949 µM, first compound 0.949 µM): 71.5% | viability, T/C (second compound 0.0949 µM, first compound 3 µM): 61.9% | viability, T/C (second compound 0.3 µM, first compound 0.00949 µM): 82.7% | viability, T/C (second compound 0.3 µM, first compound 0.03 µM): 82.5% | viability, T/C (second compound 0.3 µM, first compound 0.0949 µM): 82.5% | viability, T/C (second compound 0.3 µM, first compound 0.3 µM): 72.2% | viability, T/C (second compound 0.3 µM, first compound 0.949 µM): 64% | viability, T/C (second compound 0.3 µM, first compound 3 µM): 59.1% | viability, T/C (second compound 0.949 µM, first compound 0.00949 µM): 74.3% | viability, T/C (second compound 0.949 µM, first compound 0.03 µM): 72.2% | viability, T/C (second compound 0.949 µM, first compound 0.0949 µM): 62.7% | viability, T/C (second compound 0.949 µM, first compound 0.3 µM): 62.3% | viability, T/C (second compound 0.949 µM, first compound 0.949 µM): 60.3% | viability, T/C (second compound 0.949 µM, first compound 3 µM): 53.2% | viability, T/C (second compound 3 µM, first compound 0.00949 µM): 70.7% | viability, T/C (second compound 3 µM, first compound 0.03 µM): 64.6% | viability, T/C (second compound 3 µM, first compound 0.0949 µM): 64.1% | viability, T/C (second compound 3 µM, first compound 0.3 µM): 63% | viability, T/C (second compound 3 µM, first compound 0.949 µM): 60.6% | viability, T/C (second compound 3 µM, first compound 3 µM): 49.6%

NC1CCC(NC2CC2c2ccccc2)CC1 (configuration not stated) + Cc1c(S(C)(=O)=O)c(-c2cc(F)cc(N3CCN(c4ccc(NS(=O)(=O)c5ccc(NC(CCN6CCC(C(=O)OCCCP(=O)(O)O)CC6)CSc6ccccc6)c(S(=O)(=O)C(F)(F)F)c5)cc4)CC3)c2)c(-c2ccc(Cl)cc2)n1C(C)C
IC50 (curve of first compound, second compound 0.0316 µM): > 100 nM | IC50 (curve of first compound, second compound 0.1 µM): > 100 nM | IC50 (curve of first compound, second compound 0.316 µM): > 100 nM | IC50 (curve of first compound, second compound 1 µM): > 100 nM | IC50 (curve of first compound, second compound 3.16 µM): > 100 nM | IC50 (curve of first compound, second compound 10 µM): < 0.316 nM | viability, T/C (second compound 0.0316 µM, first compound 0.000316 µM): 88% | viability, T/C (second compound 0.0316 µM, first compound 0.001 µM): 82.3% | viability, T/C (second compound 0.0316 µM, first compound 0.00316 µM): 81.4% | viability, T/C (second compound 0.0316 µM, first compound 0.01 µM): 84.3% | viability, T/C (second compound 0.0316 µM, first compound 0.0316 µM): 88.5% | viability, T/C (second compound 0.0316 µM, first compound 0.1 µM): 80.5% | viability, T/C (second compound 0.1 µM, first compound 0.000316 µM): 94.4% | viability, T/C (second compound 0.1 µM, first compound 0.001 µM): 85.5% | viability, T/C (second compound 0.1 µM, first compound 0.00316 µM): 95.6% | viability, T/C (second compound 0.1 µM, first compound 0.01 µM): 82.7% | viability, T/C (second compound 0.1 µM, first compound 0.0316 µM): 87.7% | viability, T/C (second compound 0.1 µM, first compound 0.1 µM): 76.9% | viability, T/C (second compound 0.316 µM, first compound 0.000316 µM): 88.1% | viability, T/C (second compound 0.316 µM, first compound 0.001 µM): 81.7% | viability, T/C (second compound 0.316 µM, first compound 0.00316 µM): 77.9% | viability, T/C (second compound 0.316 µM, first compound 0.01 µM): 85% | viability, T/C (second compound 0.316 µM, first compound 0.0316 µM): 80% | viability, T/C (second compound 0.316 µM, first compound 0.1 µM): 80.2% | viability, T/C (second compound 1 µM, first compound 0.000316 µM): 75.3% | viability, T/C (second compound 1 µM, first compound 0.001 µM): 72.5% | viability, T/C (second compound 1 µM, first compound 0.00316 µM): 73.8% | viability, T/C (second compound 1 µM, first compound 0.01 µM): 71.9% | viability, T/C (second compound 1 µM, first compound 0.0316 µM): 71.9% | viability, T/C (second compound 1 µM, first compound 0.1 µM): 68.4% | viability, T/C (second compound 3.16 µM, first compound 0.000316 µM): 59.3% | viability, T/C (second compound 3.16 µM, first compound 0.001 µM): 58.6% | viability, T/C (second compound 3.16 µM, first compound 0.00316 µM): 59.3% | viability, T/C (second compound 3.16 µM, first compound 0.01 µM): 58.6% | viability, T/C (second compound 3.16 µM, first compound 0.0316 µM): 60.1% | viability, T/C (second compound 3.16 µM, first compound 0.1 µM): 56.1% | viability, T/C (second compound 10 µM, first compound 0.000316 µM): 45.1% | viability, T/C (second compound 10 µM, first compound 0.001 µM): 48.8% | viability, T/C (second compound 10 µM, first compound 0.00316 µM): 51.6% | viability, T/C (second compound 10 µM, first compound 0.01 µM): 49.1% | viability, T/C (second compound 10 µM, first compound 0.0316 µM): 52.3% | viability, T/C (second compound 10 µM, first compound 0.1 µM): 52.6%

CNC(C)C(=O)NC1CN(S(=O)(=O)c2cccc(S(=O)(=O)N3CCC4CCC(C(=O)NC(c5ccccc5)c5ccccc5)N4C(=O)C(NC(=O)C(C)NC)C3)c2)CCC2CCC(C(=O)NC(c3ccccc3)c3ccccc3)N2C1=O (configuration not stated)
viability, T/C (compound 0.00316 µM): 99.1% [middle of 6 runs] | viability, T/C (compound 0.01 µM): 94.9% [middle of 6 runs] | viability, T/C (compound 0.0316 µM): 100% [middle of 6 runs] | viability, T/C (compound 0.1 µM): 99.2% [middle of 6 runs] | viability, T/C (compound 0.316 µM): 96.8% [middle of 6 runs] | viability, T/C (compound 1 µM): 92.2% [middle of 6 runs] | IC50 (compound alone, run of 11/15/2022): > 1000 nM | IC50 (curve of compound): > 1000 nM
